# Tests used:
# Serotonin channels 5-HT3 = biological target: T1, Serotonin channels 5-HT3 (Homo sapiens, UniProt P46098); assay: Off-target screening (Eurofins Cerep), 5-HT3; format: binding
# T1 construct: Eurofins Cerep SA (contract screen)
# [1] = biological target: AR (steroid nuclear receptor) (Homo sapiens, UniProt P10275); assay: Off-target screening (Eurofins Cerep), AR; format: binding
# MCF-7 breast tumors = assay: NIR fluorescence imaging, MCF-7 breast tumors; format: in vivo, mice; conditions: 10 nmol, Pearl
# Description: (§1) To induce subcutaneous tumors, colorectal cancer cells (HT-29) were injected at 4 sites on the back (500,000 cells per spot). Subsequently, these colorectal tumor cells were transplanted on the colon of other mice, as described by Tseng et al.. Approximately 500,000 pancreatic tumor cells (BxPC-3) were injected into the pancreas, as previously described by Kim et al.. Approximately 40,000 oral tumor cells (OSC-19) were injected in the tongue, as previously described by van Driel et al.. Approximately 500,000 breast tumor cells (MCF-7) were injected in both sides of the mammary fat pad to induce breast cancer tumors.
# All animals were imaged using a Pearl® imager (LI-COR, Lincoln, NE) and an original FLARE® prototype. Animals with HT-29 tumors were imaged at 4 and 24 h post injection; animals with BxPC-3 and OSC-19 tumors at 4 h only. Animals with MCF-7 tumors were imaged at 0.5, 1, 2, 4, 6, 8, 24 and 48 h post injection. The specific and control images were normalized and regions of interest (ROIs) were selected using associated software. TBRs were calculated by dividing the tumor signal by the background signal. Based on our experience a TBR ≥ 2 is sufficient to discriminate between tumor and surrounding tissue.
# (§2) Mice bearing orthotopic OSC-19 tumors (n = 2) were administrated with 10 nmol cRGD-ZW800-1 and imaged at 4 h. Mice bearing orthotopic MCF-7 tumors (n = 2) were injected with 10 nmol cRGD-ZW800-1 and imaged at 0.5, 1, 2, 4, 6, 8, 24, and 48 h post injection. One mouse with 2 MCF-7 tumors was administered with 10 nmol cRGD-ZW800-1 and imaged at 4 h post injection while its skin was partially removed. In vivo TBRs were calculated by dividing the mean fluorescence signals of tumors by the mean of surrounding tissue. Ex vivo organ-to-tumor ratios were calculated by dividing the fluorescence intensity of the organ by that of the tumor.
# [2] = biological target: T2, Cholecystokinin CCK1 (CCKA) (Homo sapiens, UniProt P32238); assay: Off-target screening (Eurofins Cerep), CCK1 (CCKA); format: binding
# T2 construct: Eurofins Cerep SA (contract screening)
# T2 sequence (P32238 whole entry): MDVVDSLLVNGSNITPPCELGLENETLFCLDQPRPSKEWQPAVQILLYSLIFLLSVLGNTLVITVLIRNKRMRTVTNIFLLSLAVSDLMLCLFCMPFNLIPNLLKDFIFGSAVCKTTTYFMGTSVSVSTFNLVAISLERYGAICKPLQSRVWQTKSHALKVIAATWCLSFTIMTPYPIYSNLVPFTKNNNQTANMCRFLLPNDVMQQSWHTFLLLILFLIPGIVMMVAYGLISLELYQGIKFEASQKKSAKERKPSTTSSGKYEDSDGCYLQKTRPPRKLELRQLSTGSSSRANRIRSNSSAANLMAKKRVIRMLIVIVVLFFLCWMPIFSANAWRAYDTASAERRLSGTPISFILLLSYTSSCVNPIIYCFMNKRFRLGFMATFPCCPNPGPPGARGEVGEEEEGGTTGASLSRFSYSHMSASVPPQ
# PDE4D2 = biological target: T3, PDE4D2 (Homo sapiens, UniProt Q08499); assay: Off-target screening (Eurofins Cerep), PDE4D2; format: biochemical
# T3 construct: Eurofins Cerep SA (contract screen)
# T3 sequence (Q08499 303-809): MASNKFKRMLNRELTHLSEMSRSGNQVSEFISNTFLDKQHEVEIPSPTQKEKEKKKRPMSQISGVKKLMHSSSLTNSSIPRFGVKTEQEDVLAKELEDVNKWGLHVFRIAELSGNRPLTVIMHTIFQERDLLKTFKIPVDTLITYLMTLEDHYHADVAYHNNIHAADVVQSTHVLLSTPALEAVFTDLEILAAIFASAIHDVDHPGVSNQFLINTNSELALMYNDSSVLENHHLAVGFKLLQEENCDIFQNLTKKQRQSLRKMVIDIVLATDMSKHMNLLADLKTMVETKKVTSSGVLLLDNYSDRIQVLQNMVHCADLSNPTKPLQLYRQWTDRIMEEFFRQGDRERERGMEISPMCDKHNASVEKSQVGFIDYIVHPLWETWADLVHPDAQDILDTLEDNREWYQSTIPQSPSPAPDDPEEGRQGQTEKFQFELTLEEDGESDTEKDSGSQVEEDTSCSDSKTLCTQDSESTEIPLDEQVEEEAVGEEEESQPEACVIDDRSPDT
# BxPC-3 tumors and organs = assay: Ex vivo biodistribution, BxPC-3 model; format: in vivo, mice; conditions: 4 h post injection
# Description: After imaging, mice were sacrificed and OSC-19 and BxPC-3 tumors were quickly frozen in isopentane at -80°C for histological evaluation. Tissues were sectioned at 10 μm and fluorescence imaging was performed using fluorescence microscopy (Nikon eclipse e800, Nikon, Amsterdam, The Netherlands). All histologic sections were stained with standard hematoxylin-eosin stain (HE). Organs of mice with colorectal and pancreatic cancer were collected and imaged using the Pearl® to evaluate biodistribution.
# (§3) Mice were administered with 0.25 (HT-29 model only), 1.0, 10, or 30 nmol cRGD-ZW800-1 to evaluate tumor signals, biodistribution, and to calculate TBRs (n = 3 per dose group). At 4 h (BxPC-3 model) and 24 h (HT-29 model) after injection, mice were fully dissected and fluorescence intensity of their organs was measured.
# as §2
# HT-29 colorectal tumors = assay: NIR fluorescence imaging, HT-29 colorectal tumors, dose-ranging; format: in vivo, mice
# Description: as §1
# All animals were imaged using a Pearl® imager (LI-COR, Lincoln, NE) and an original FLARE® prototype. Animals with HT-29 tumors were imaged at 4 and 24 h post injection; animals with BxPC-3 and OSC-19 tumors at 4 h only. Animals with MCF-7 tumors were imaged at 0.5, 1, 2, 4, 6, 8, 24 and 48 h post injection. […] TBRs were calculated by dividing the tumor signal by the background signal. […]
# as §3
# [3] = biological target: T4, Norepinephrine transporter (Homo sapiens, UniProt P23975); assay: Off-target screening (Eurofins Cerep), norepinephrine transporter; format: binding
# T4 construct: Eurofins Cerep SA (contract screen)
# T4 sequence (P23975 whole entry): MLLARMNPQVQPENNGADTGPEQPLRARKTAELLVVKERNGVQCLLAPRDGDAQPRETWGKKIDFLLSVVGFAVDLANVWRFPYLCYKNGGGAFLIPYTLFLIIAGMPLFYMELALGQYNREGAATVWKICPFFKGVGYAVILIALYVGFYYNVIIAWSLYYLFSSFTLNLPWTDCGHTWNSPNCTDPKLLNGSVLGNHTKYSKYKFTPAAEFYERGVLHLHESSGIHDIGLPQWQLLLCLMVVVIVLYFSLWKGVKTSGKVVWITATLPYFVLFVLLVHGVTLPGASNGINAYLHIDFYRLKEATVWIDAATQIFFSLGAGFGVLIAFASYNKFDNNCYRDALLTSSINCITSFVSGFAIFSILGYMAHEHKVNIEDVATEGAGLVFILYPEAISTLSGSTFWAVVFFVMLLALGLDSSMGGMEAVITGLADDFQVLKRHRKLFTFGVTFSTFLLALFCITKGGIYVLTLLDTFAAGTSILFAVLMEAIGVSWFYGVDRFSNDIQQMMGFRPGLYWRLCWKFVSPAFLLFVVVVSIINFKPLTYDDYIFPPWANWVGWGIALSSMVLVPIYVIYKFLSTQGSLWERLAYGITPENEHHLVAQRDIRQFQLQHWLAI
# Dopamine D1 = biological target: T5, Dopamine D1 (Homo sapiens, UniProt P21728); assay: Off-target screening (Eurofins Cerep), D1; format: binding
# T5 construct: Eurofins Cerep SA (contract screening)
# T5 sequence (P21728 whole entry): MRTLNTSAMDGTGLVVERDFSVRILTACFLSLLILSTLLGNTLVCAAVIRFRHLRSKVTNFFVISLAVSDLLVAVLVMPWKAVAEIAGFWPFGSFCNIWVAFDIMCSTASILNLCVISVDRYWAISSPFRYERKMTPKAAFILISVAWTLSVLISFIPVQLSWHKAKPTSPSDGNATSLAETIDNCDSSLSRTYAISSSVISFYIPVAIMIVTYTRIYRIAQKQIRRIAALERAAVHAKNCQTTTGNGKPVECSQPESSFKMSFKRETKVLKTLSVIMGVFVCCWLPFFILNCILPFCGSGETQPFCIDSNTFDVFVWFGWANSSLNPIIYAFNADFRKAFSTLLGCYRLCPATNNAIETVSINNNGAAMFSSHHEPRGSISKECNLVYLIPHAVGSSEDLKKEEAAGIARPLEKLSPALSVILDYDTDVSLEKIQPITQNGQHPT
# [4] = biological target: T6, lymphocyte-specific protein tyrosine kinase (LCK) (Homo sapiens, UniProt P06239); assay: Off-target screening (Eurofins Cerep), Lck kinase; format: biochemical
# T6 construct: Eurofins Cerep SA (contract screen)
# T6 sequence (P06239 whole entry): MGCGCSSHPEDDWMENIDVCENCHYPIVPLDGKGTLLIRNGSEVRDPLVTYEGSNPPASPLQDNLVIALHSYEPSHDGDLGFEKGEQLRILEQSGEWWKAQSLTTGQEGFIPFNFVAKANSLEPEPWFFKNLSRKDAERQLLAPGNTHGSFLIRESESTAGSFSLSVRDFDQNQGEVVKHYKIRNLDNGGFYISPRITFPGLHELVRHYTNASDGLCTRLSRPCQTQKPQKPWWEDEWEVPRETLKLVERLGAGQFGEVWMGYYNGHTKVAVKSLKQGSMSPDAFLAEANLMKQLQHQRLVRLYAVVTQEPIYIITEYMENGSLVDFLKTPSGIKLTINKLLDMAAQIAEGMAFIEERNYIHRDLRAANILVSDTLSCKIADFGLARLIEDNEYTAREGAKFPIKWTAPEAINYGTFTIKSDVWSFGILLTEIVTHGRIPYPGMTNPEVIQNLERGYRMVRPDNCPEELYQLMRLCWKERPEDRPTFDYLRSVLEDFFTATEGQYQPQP
# Serotonin 5-HT2A = biological target: T7, Serotonin 5-HT2A (Homo sapiens, UniProt P28223); assay: Off-target screening (Eurofins Cerep), 5-HT2A; format: binding
# T7 construct: Eurofins Cerep SA (contract screening)
# T7 sequence (P28223 whole entry): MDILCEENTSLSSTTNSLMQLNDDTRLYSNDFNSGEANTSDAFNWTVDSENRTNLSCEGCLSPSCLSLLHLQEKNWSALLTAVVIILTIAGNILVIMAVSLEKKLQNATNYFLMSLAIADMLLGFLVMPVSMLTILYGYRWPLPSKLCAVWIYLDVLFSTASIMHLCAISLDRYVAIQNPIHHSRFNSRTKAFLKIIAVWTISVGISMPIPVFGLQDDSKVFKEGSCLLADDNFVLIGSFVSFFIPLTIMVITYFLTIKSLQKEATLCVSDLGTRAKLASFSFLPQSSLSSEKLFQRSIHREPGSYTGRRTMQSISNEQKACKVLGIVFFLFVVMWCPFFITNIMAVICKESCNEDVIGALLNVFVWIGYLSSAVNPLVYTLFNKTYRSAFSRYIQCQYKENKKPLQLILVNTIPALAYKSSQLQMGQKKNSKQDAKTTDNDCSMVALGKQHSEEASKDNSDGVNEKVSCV
# Cannabinoid CB1 = biological target: T8, Cannabinoid CB1 (Homo sapiens, UniProt P21554); assay: Off-target screening (Eurofins Cerep), CB1; format: binding
# T8 construct: Eurofins Cerep SA (contract screening)
# T8 sequence (P21554 whole entry): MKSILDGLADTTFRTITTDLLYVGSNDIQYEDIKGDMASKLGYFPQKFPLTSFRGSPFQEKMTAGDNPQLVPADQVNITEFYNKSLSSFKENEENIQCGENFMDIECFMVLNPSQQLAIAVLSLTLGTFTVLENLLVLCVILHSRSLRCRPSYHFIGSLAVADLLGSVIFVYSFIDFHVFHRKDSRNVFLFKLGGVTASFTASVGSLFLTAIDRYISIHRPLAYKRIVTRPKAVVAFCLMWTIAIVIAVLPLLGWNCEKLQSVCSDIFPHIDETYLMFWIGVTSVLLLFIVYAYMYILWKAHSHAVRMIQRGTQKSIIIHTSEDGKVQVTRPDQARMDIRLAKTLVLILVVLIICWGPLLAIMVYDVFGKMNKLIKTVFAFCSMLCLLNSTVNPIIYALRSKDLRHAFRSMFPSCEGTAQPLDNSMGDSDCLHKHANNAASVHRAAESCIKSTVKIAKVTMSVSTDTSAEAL
# Histamine H1 = biological target: T9, Histamine H1 (Homo sapiens, UniProt P35367); assay: biochemical; format: binding
# T9 construct: Eurofins Cerep SA (contract screening)
# T9 sequence (P35367 whole entry): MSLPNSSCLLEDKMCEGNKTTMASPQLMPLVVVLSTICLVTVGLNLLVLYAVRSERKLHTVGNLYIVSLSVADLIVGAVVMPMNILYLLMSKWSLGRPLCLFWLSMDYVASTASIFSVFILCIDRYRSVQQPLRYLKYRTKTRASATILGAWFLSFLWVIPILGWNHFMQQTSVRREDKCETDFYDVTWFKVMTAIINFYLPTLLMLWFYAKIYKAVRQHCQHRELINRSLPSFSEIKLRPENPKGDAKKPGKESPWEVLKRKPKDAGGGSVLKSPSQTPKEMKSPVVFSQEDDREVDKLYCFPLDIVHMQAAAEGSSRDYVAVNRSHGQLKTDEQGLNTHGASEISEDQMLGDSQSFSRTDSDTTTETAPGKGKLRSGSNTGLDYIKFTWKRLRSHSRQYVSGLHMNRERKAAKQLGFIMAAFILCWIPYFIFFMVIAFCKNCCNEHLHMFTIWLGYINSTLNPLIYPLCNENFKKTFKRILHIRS
# HT-29 cells = assay: In vitro competition with unlabeled cRGD, HT-29; format: cell-based, human; conditions: 500 nM cRGD-ZW800-1 + 500 nM unlabeled cRGD (1:1), 37°C, 2 h, vs cells without unlabeled cRGD, triplicate
# Description: For in vitro competition, U-87 MG (αvβ3 and αvβ5 positive, αvβ6 negative) and HT-29 (αvβ3 negative, αvβ5 and αvβ6 positive) cells were plated in a 96-well plate at a density of ∼40,000 and ∼60,000 cells per well, respectively. Subsequently, 500 nM of cRGD-ZW800-1 was simultaneously added to the cells and incubated at 37°C for 2 h. At the same time, half of the cells were also incubated with 500 nM unlabeled (“cold”) cRGD.
# Both the cells in the binding and the competition experiment were then washed twice and imaged with the Odyssey NIR scanner (LI-COR Biosciences, Lincoln, Nebraska: focus offset 3 mm; 800-nm channel). Next, cells were permeabilized with a 40/60 mixture of acetone and methanol followed by a washing step and a 5 min incubation with ToPro3 (1/2000, Invitrogen), a far red fluorescent dye (642/661nm). The wells were then washed and again imaged with the Odyssey scanner (focus offset 3 mm; 700-nm channel) to quantify the number of cells in each well. The experiments were performed in triplicate.
# [5] = read-out: % Inhibition of Control Specific Binding
# [6] = read-out: % of Control Specific Binding Mean
# [7] = 10 μM cRGD-ZW800-1, format H, Ag, performed twice, read-out: % Inhibition of Control Specific Binding
# [8] = 10 μM, mean of 2, read-out: % of Control Specific Binding Mean
# AR (steroid nuclear receptor), sequence (P10275 whole entry): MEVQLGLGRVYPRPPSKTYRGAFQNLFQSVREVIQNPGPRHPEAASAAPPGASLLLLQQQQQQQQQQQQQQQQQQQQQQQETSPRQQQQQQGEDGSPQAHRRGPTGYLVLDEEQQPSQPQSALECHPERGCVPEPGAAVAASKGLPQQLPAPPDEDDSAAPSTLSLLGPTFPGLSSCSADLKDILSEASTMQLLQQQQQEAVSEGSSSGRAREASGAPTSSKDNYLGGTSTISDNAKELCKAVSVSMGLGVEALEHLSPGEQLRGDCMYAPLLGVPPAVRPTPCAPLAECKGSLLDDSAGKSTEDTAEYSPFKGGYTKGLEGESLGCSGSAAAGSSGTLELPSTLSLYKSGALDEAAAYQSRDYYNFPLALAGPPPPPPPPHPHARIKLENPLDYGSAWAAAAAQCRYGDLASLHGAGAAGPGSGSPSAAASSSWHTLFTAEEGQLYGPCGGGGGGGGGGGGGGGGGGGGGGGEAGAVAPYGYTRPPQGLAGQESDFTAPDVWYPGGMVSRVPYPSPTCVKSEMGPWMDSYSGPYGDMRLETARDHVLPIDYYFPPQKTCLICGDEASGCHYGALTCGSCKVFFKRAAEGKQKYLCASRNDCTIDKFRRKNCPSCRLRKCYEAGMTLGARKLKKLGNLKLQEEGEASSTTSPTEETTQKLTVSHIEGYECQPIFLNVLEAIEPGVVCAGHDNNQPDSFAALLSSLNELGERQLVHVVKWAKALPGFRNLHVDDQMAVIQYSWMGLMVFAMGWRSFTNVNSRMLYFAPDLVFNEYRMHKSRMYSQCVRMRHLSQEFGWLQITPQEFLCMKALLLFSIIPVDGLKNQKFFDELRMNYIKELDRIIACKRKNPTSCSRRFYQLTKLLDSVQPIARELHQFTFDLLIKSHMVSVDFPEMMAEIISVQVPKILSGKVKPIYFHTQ
compound,measurement,setting,value
CC1(C)C(/C=C/C2=C(Oc3ccc(CCC(=O)NCCCC[C@@H]4NC(=O)[C@@H](Cc5ccc(O)cc5)NC(=O)[C@H](CC(=O)O)NC(=O)CNC(=O)[C@H](CCCNC(=N)N)NC4=O)cc3)C(=C/C=C3/N(CCC[N+](C)(C)C)c4ccc(S(=O)(=O)O)cc4C3(C)C)/CCC2)=[N+](CCC[N+](C)(C)C)c2ccc(S(=O)(=O)O)cc21 [cRGD-ZW800-1],inhibition at 10 µM,Serotonin channels 5-HT3; [5],12%
same,remaining activity at 10 µM,Serotonin channels 5-HT3; [6],87.7%
same,inhibition at 10 µM,[1]; [7],9%
same,remaining activity at 10 µM,[1]; [8],91.4%
same,decrease of fluorescence intensity of tumors at 4 h compared to 0.5 h post injection,MCF-7 breast tumors,61% ± 8%
same,decrease of fluorescence intensity of tumors at 24 h compared to 0.5 h post injection,MCF-7 breast tumors,77% ± 4%
same,"TBR at 4 h post injection, with skin",MCF-7 breast tumors; single mouse with 2 tumors,1.5 ± 0.1
same,"TBR at 4 h post injection, skin removed","MCF-7 breast tumors; single mouse with 2 tumors, p = 0.02",3.0 ± 0.3
same,inhibition at 10 µM,[2]; [7],-8%
same,remaining activity at 10 µM,[2]; [8],108%
same,inhibition at 10 µM,PDE4D2; [5],10%
same,remaining activity at 10 µM,PDE4D2; [6],90.3%
same,"tumor fluorescence relative to skin, intestines, lungs, muscle, gallbladder, brain, and blood","BxPC-3 tumors and organs; all doses, ex vivo, Pearl",at least twice as fluorescent
same,fluorescence signals in kidneys relative to tumors,BxPC-3 tumors and organs; ex vivo,equal to or higher than tumors
same,fluorescence ratios of large intestines and liver compared with tumors,BxPC-3 tumors and organs; ex vivo organ-to-tumor ratio,around half
same,TBRs at 4 and 24 h post injection,"HT-29 colorectal tumors; HT-29, 1, 10 and 30 nmol dose groups, n = 3 per dose group",> 2
same,optimal dose,"HT-29 colorectal tumors; mice, doses of 0.25, 1.0, 10, 30 nmol explored, Pearl and FLARE",10 nmol
same,inhibition at 10 µM,"[3]; 10 μM cRGD-ZW800-1, format H, An, performed twice, read-out: % Inhibition of Control Specific Binding",3%
same,remaining activity at 10 µM,[3]; [8],97.4%
same,inhibition at 10 µM,Dopamine D1; [5],-1%
same,remaining activity at 10 µM,Dopamine D1; [6],101%
same,inhibition at 10 µM,"[4]; 10 μM cRGD-ZW800-1, format H, performed twice, read-out: % Inhibition of Control Specific Binding",28%
same,remaining activity at 10 µM,[4]; [8],72.3%
same,inhibition at 10 µM,Serotonin 5-HT2A; [7],-9%
same,remaining activity at 10 µM,Serotonin 5-HT2A; [8],109%
same,inhibition at 10 µM,Cannabinoid CB1; [7],-6%
same,remaining activity at 10 µM,Cannabinoid CB1; [8],106%
same,inhibition at 10 µM,Histamine H1; [5],-5%
same,remaining activity at 10 µM,Histamine H1; [6],105%
same,reduction of fluorescence signal by unlabeled cRGD,HT-29 cells,32%
